Data reported in US9975882B2, “Heteroaromatic compounds as BTK inhibitors” (Boehringer Ingelheim International GmbH, priority 2015, dated 2018).
Where two headings read alike, the source gives them in different places.

Key:
[1] = Plasma compound exposure in rats (tail bleed, day 6); assay type: in vivo; conditions: rat
Method: (§1) All animals (telemetry-instrumented) are single housed in metabolic cages. Rats are acclimated to the metabolic cage for at least 3 days and then dosed with vehicle for up to 4 days. Blood pressure, heart rate, and bodyweight are collected during the baseline period and animals are randomized into 3 groups based on these parameters (n=8-9/group). Treatment groups are: vehicle and test compound (10 mg/kg po and 30 mg/kg po qd); animals are treated with compound for 5 days. […] Mean arterial pressure (MAP) and heart rate (HR) are collected continuously throughout the study. Statistical analyses is performed using GraphPad Prism based on the average 24-hr mean value during five days of compound administration (one-way ANOVA with Dunnett's post-test vs. Vehicle; p<0.05 is considered statistically significant).

[2] = test system: mean arterial pressure (MAP); conditions: rat, in vivo; for 5-Day 24-h MAP Change versus Control: po
Method: In-Vivo Assay—Comparison Between the Compounds of the Present Invention and Comparative Compounds A, B and C
In a side-by-side in-vivo study, select compounds of the present invention and comparative compounds A-C are evaluated in telemetry-instrumented conscious rats to determine their effects on mean arterial pressure (MAP) at doses at or above therapeutically relevant concentrations.
as §1

[3] = biological target: human recombinant full length TEC (His-tagged) (Homo sapiens (Human), UniProt P42680); experiment: TEC Lanthscreen Eu Kinase Binding assay; conditions: 1 nM TEC
Sequence of human recombinant full length TEC (His-tagged) (P42680 whole entry): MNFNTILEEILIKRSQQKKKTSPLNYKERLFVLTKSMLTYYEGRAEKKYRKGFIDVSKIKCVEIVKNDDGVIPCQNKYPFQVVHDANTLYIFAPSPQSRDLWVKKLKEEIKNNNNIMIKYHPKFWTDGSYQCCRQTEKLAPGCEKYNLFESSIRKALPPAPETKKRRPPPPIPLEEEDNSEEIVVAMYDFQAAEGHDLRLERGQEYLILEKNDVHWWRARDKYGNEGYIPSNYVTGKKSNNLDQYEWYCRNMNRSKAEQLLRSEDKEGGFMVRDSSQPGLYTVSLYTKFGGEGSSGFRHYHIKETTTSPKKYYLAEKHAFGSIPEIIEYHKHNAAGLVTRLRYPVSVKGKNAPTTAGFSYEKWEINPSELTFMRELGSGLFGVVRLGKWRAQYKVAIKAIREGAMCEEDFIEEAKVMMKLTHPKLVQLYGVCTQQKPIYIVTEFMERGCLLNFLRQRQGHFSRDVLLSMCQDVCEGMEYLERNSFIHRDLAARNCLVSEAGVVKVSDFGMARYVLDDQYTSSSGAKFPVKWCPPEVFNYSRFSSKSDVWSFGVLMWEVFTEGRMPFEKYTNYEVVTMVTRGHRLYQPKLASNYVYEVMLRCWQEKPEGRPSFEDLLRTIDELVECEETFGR

[4] = biological target: human recombinant BTK (full length, His-tagged) (Homo sapiens (Human), UniProt Q06187); experiment: BTK Z'-LYTE assay; assay type: biochemical; conditions: 25 μM ATP;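 note: FRET readout of kinase phosphorylating a coumarin and fluorescein labelled synthetic peptide, detected via protease sensitivity of unphosphorylated versus phosphorylated substrate, incubated at 22 °C in 384-well plates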
Sequence of human recombinant BTK (full length, His-tagged) (Q06187 whole entry): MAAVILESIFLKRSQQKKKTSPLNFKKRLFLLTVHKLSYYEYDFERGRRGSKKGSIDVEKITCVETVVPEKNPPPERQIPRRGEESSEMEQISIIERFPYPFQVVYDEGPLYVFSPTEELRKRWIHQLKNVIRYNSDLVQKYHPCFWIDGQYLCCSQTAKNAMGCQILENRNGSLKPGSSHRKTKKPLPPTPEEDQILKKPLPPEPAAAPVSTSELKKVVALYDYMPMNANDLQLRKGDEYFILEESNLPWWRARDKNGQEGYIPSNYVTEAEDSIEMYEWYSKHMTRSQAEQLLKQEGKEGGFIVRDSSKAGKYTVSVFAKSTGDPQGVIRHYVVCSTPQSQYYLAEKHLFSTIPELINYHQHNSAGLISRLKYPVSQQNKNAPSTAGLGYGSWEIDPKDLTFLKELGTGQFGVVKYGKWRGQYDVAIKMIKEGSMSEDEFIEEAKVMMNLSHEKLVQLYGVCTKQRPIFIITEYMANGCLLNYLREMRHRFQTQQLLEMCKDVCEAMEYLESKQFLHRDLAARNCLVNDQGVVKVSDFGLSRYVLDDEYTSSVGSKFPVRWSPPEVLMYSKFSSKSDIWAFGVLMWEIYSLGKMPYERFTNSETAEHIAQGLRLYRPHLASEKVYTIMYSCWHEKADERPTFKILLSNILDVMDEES
Method: Z′-LYTE™ Assay (Life Technologies):
(§3) The Z′-Lyte assay employs a FRET-based, coupled-enzyme format and is based on the differential sensitivity of phosphorylated and non-phosphorylated peptides to proteolytic Cleavage. The activity of human recombinant BTK (full length, His-tagged), BMX (full length, His-tagged) or Txk (full length, GST-tagged) is estimated by measuring the phosphorylation of a synthetic FRET peptide substrate labeled with Coumarin and Fluorescein. […] Incubations are carried out at 22° C. in black polypropylene 384-well plates (Corning).
(§4) Representative compounds of the present invention are assessed for inhibition of BTK, BMX, and TXK measuring phosphorylation of a substrate (Z′-LYTE™ assay, Life Technologies) and TEC measuring displacement of a “tracer” (Lanthscreen® Eu Kinase Binding assay, Life Technologies).

[5] = biological target: human full length His-tagged BTK (Homo sapiens (Human), UniProt Q06187); experiment: BTK Lanthscreen Eu Kinase Binding assay; conditions: 2 nM BTK
Sequence of human full length His-tagged BTK (Q06187 whole entry): as above
Method: BTK Lanthscreen® Eu Kinase Binding Assay:
A Lanthscreen® Eu Kinase Binding assay (Life Technologies) is performed to quantitate the ability of test compounds to bind to BTK. The assay is based on the binding and displacement of Alexa Fluor647-labeled Kinase Tracer #236 to the ATP-binding site of human full length His-tagged BTK (Life Technologies cat #PV3587) with TR-FRET detection using a europium-labeled anti-His antibody. The assay is assembled in 384-well low volume NBS black plates (Corning) where 2 nM BTK and test compound in DMSO at varying concentrations are pre-incubated for 30 min at 28° C. in assay buffer consisting of 50 mM HEPES, pH 7.4, 10 mM MgCl2, 1 mM EGTA. 100 μM Na3VO4 and 0.01% Brij 35. Then, 2 nM of Eu-anti His antibody and 30 nM Kinase Tracer are added and incubated for 60 min at 28° C. Following incubation, TR-FRET signal is read on an Envision plate reader (Excitation: 340 nm; Emissions: 615 and 665 nm). The 665:615 nm emission ratio is calculated and converted to POC compared to control and blank wells.

[6] = biological target: EGFR (EGFR phosphorylation in A431 cells) (Homo sapiens (Human), UniProt P00533); experiment: Inhibition of EGFR autophosphorylation in A431 human epithelial cells stimulated with EGF; assay type: cell-based; conditions: EGF 60 ng/mL, read-out: A431 p-EGFR IC50
Sequence of EGFR (EGFR phosphorylation in A431 cells) (P00533 25-1210): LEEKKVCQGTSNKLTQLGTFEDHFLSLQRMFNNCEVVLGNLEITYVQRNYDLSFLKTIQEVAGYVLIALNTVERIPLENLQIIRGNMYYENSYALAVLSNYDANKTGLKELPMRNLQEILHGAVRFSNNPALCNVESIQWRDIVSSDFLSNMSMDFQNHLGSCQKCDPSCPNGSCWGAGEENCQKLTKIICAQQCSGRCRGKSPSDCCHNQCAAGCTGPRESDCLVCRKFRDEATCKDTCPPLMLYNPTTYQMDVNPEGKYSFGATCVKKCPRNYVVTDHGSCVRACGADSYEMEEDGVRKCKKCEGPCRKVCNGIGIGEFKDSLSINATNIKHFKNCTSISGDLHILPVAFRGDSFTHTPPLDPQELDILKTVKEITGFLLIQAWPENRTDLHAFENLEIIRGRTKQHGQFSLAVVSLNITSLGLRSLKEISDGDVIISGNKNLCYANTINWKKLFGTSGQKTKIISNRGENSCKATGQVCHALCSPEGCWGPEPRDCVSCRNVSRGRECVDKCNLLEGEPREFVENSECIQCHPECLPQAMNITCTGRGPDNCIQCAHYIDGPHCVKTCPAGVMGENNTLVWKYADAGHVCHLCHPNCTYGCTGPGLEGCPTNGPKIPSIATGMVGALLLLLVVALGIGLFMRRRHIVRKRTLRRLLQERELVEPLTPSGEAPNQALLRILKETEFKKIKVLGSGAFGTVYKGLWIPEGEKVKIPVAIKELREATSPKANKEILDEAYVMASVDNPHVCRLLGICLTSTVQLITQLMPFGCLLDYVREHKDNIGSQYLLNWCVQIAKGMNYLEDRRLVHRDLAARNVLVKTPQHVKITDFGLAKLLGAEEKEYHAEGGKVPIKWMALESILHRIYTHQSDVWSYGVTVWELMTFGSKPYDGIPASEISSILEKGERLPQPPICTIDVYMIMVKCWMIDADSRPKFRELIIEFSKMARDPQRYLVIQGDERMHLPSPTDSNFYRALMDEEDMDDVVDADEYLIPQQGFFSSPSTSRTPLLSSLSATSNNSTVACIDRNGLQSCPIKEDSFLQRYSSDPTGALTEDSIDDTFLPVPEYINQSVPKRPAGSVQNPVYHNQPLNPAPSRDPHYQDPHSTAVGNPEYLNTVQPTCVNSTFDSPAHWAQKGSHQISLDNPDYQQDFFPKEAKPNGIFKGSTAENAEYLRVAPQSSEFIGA
Method: Inhibition of EGFR Autophosphorylation in A431 Human Epithelial Cells Stimulated with Epithelial Growth Factor
A431 cells (ATCC #CRL-1555 FZ) are thawed and plated in DMEM containing 10% FBS in a 384-well tissue culture treated plate at 15,000 cells/well. After incubating for 24 hours at 37° C., 5% CO2, the cells are treated with test compound (1% DMSO final concentration) and incubated for 16 hours at 37° C., 5% CO2. EGF (Millipore, 01-107) is added at a final concentration of 60 ng/mL and incubated for 10 minutes. The medium is removed, the cells are lysed, and phospho EGFR is measured (Meso Scale Diagnostics, N31CB-1).
(§2) Representative compounds of the present invention are tested and show BTK inhibition (Table I). […] Additionally, compounds of the present invention, as represented by examples in Table II, are selective for BTK inhibition over other related kinases. […] In this table the BTK activity is measured by IL-6 production in primary CD19^+ B cells, and the EGFR activity is measured by EGFR phosphorylation in A431 cells.

[7] = biological target: human recombinant Txk (full length, GST-tagged) (Homo sapiens (Human), UniProt P42681); experiment: TXK Z'-LYTE assay; conditions: read-out: TXK IC50, 100 μM ATP;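 note: FRET read-out of kinase phosphorylation of a synthetic peptide labelled with Coumarin and Fluorescein, scored by protease sensitivity of unphosphorylated peptide, incubated at 22 °C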
Sequence of human recombinant Txk (full length, GST-tagged) (P42681 whole entry): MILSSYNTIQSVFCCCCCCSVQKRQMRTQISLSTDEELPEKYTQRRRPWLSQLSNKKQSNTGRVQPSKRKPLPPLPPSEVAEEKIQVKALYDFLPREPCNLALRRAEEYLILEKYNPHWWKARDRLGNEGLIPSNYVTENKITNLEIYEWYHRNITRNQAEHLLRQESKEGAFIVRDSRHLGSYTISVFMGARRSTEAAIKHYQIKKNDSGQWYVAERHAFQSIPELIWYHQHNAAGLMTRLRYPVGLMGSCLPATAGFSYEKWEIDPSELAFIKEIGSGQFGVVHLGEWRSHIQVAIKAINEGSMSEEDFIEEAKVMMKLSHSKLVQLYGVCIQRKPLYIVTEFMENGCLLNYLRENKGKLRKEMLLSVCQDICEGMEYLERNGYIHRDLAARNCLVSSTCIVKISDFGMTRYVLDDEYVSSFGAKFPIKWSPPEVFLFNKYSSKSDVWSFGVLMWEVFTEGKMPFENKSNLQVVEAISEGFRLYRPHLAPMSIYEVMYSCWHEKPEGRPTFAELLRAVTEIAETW
Method: Z′-LYTE™ Assay (Life Technologies):
as §3, §4

[8] = test system: BTK (IL-6 production in primary CD19+ B cells); experiment: Inhibition of IL-6 production in B cells co-stimulated with ODN 2006 and anti-hIgD; assay type: cell-based; conditions: B-cell, anti-human IgD + ODN 2006
Method: Inhibition of IL-6 Production in B Cells Co-Stimulated with ODN 2006 and anti-hIgD
Primary CD19+ B cells (AllCells #PB010F) are thawed and plated in RPMI containing 10% HI FBS in a 384-well tissue cultured plate at 20,000 cells/well. The cells are treated with test compound (0.5% DMSO final concentration) and incubated for 1 hour at 37° C., 5% CO2. Cells are then stimulated with 5 ug/mL Goat F(ab′)2 anti-human IgD (SouthernBiotech #2032) and 2 uM ODN 2006 (InvivoGen #tlrl-2006) and incubated for 18-24 hours at 37° C., 5% CO2. IL-6 in the supernatant is measured using Meso Scale Discovery kit #K211AKB-6.
as §2

Row | SMILES | Cmax ([1]; 10 mg/kg po qd) | Cmax ([1]; 30 mg/kg po qd) | 5-Day 24-h MAP Change versus Control ([2]; 10 mg/kg) | 5-Day 24-h MAP Change versus Control ([2]; 30 mg/kg) | IC50 [3] | IC50 [4] | Cmax ([1]; plasma, 10 mg/kg po qd) | Cmax ([1]; plasma, 30 mg/kg po qd) | IC50 [5] | IC50 [6] | IC50 [7] | IC50 [8] | 5-Day 24-h MAP Change versus Control ([2]; 10 mg/kg, 5 days) | 5-Day 24-h MAP Change versus Control ([2]; 30 mg/kg, 5 days) | effect on mean arterial pressure (MAP) [2]
1 | CC#CC(=O)N1CCC2(CC(n3nc(-c4ccc(OC(C)C)cc4)c(C(N)=O)c3N)C2)C1 (stereo not drawn) [Compound B, 5-amino-1-(7-but-2-ynoyl-7-azaspiro[3.4]octan-2-yl)-3-(4-isopropoxyphenyl) pyrazole-4-carboxamide] | 182 ± 17 nM | 480 ± 53 nM | 3 ± 1 mmHg | 2 ± 1 mmHg | 44 nM | 0.9 nM |  |  |  |  |  |  |  |  | statistically significant increases in MAP
2 | CC#CC(=O)N1CC[C@]2(C1)C[C@H](n1nc(-c3cnn(Cc4ccccc4C(F)(F)F)c3)c(C(N)=O)c1N)C2 [Example 12] |  |  | No statistically significant | No statistically significant | 92 nM | 1.7 nM | 111 ± 37 nM | 344 ± 106 nM | 0.5 nM | > 10000 nM | 130 nM | 0.5 nM |  |  | 
3 | C=CC(=O)N1CCC[C@@H](n2nc(-c3ccc(Oc4ccccc4)cc3)c3c(N)ncnc32)C1 [Compound A, 1-[(3R)-3-[4-amino-3-(4-phenoxyphenyl)pyrazolo[3,4-d]pyrimidin-1-yl]-1-piperidyl]prop-2-en-1-one] |  |  |  |  |  |  | 319 ± 36 nM | 561 ± 183 nM |  |  |  |  | 3 ± 1 mmHg | 4 ± 1 mmHg | statistically significant increases in MAP
4 | C=CC(=O)Nc1cccc(Nc2nc(Nc3ccc(OCCOC)cc3)ncc2F)c1 [Compound C, N-(3-(5-fluoro-2-(4-(2-methoxyethoxy)phenylamino)pyrimidin-4-ylamino)phenyl)acrylamide] |  |  |  |  | 6.8 nM |  | 644 ± 96 nM | 1730 ± 434 nM |  |  | 22 nM |  | 4 ± 1 mmHg | 5 ± 1 mmHg | statistically significant increases in MAP
5 | CC#CC(=O)N1CC[C@]2(C1)C[C@H](n1nc(-c3cnn(Cc4ccccc4C)c3)c(C(N)=O)c1N)C2 [Example 16] |  |  |  |  | 220 nM | 13 nM |  |  | 1.5 nM | > 10000 nM | 430 nM | 2 nM |  |  | 

More lines, main results first:

Row | Cmax ([1]; 10 mg/kg po qd) | Cmax ([1]; 30 mg/kg po qd) | 5-Day 24-h MAP Change versus Control ([2]; 10 mg/kg) | 5-Day 24-h MAP Change versus Control ([2]; 30 mg/kg) | IC50 [3] | IC50 [4] | Cmax ([1]; plasma, 10 mg/kg po qd) | Cmax ([1]; plasma, 30 mg/kg po qd) | IC50 [5] | IC50 [6] | IC50 [7] | IC50 [8] | 5-Day 24-h MAP Change versus Control ([2]; 10 mg/kg, 5 days) | 5-Day 24-h MAP Change versus Control ([2]; 30 mg/kg, 5 days) | SMILES | effect on mean arterial pressure (MAP) [2]
6 |  |  | No statistically significant | No statistically significant | 21 nM | 0.7 nM | 170 ± 29 nM | 720 ± 262 nM | 0.3 nM | > 10000 nM | 46 nM | 0.8 nM |  |  | CC#CC(=O)N1CC[C@]2(C1)C[C@H](n1nc(-c3cnn(Cc4cccc(C(F)(F)F)c4)c3)c(C(N)=O)c1N)C2 [Example 22] | 
7 |  |  |  |  | 20 nM | 1.4 nM |  |  | 0.3 nM | > 10000 nM | 78 nM | 0.7 nM |  |  | CC#CC(=O)N1CC[C@]2(C1)C[C@H](n1nc(-c3cnn(Cc4ccccc4)c3)c(C(N)=O)c1N)C2 [Example 44] | 
8 |  |  |  |  | 22 nM | 1 nM |  |  | 0.2 nM | > 10000 nM | 50 nM | 0.5 nM |  |  | CC#CC(=O)N1CC[C@]2(C1)C[C@H](n1nc(-c3cnn(Cc4cccc(C(F)F)c4)c3)c(C(N)=O)c1N)C2 [Example 36] | 
9 |  |  |  |  | 34 nM | 2.7 nM |  |  | 0.5 nM | > 10000 nM | 310 nM | 1.1 nM |  |  | CC#CC(=O)N1CC2(CC(n3nc(-c4cnn(Cc5cccc(C(F)(F)F)c5)c4)c(C(N)=O)c3N)C2)C1 [Example 47] | 
